Data published in US20100310674A1, “NOVEL COMPOSITION FOR TREATING THE SIDE EFFECTS OF ANTICANCER TREATMENTS” (TROPHOS, priority 2007, published 2010).

How the values were obtained:
[1] = tested on: tactile allodynia induced by vincristine sulphate; experiment: Tactile allodynia induced by cumulative doses of vincristine sulphate in the rat (paw withdrawal threshold, Dynamic Plantar Aesthesiometer); type: in vivo, rat (WISTAR); conditions: for anti-allodynic effect on first day of administration: day 10
Protocol: The effect of cholest-4-en-3-one oxime on tactile allodynia induced by cumulative doses of vincristine sulphate was evaluated in the rat. Adult male WISTAR rats weighing approximately 250 g were used. Vincristine sulphate was injected by intravenous route at 200 μg/kg on days 1, 4 and 6 (total cumulative dose of 600 μg/kg). The animal's paw withdrawal thresholds to harmless mechanical stimulation were measured in the rats on days 0, 3, 5, 7 and then every day from day 10 to day 14. The cholest-4-en-3-one oxime (10, 30 and 100 mg/kg once daily) was administered by oral route from day 10 to day 14 and the paw withdrawal thresholds were measured 4 hours after administration of the cholest-4-en-3-one oxime. 8 rats were used per tested dose. The mechanical stimulation thresholds at which the animals withdraw their hind paw in response to mechanical stimulations were measured using a Dynamic Plantar Aesthesiometer (Ugo Basile, Italy). Briefly, in a temperature-controlled room (approximately 22° C.) each animal was placed in a transparent cubic box made of Perspex (22×16.5×14 cm) containing a metal mesh floor giving access to the soles of its paws and left for 15 minutes before the test in order for it to acclimatize. A mechanical stimulus was applied to the left hind paw using a stainless filament (0.5 mm in diameter) exerting a force which increases linearly (2.5 g/sec). The force (g) at which the animal withdraws its paw was recorded automatically. Each paw withdrawal threshold was calculated as the average of three consecutive tests carried out at 5-minute intervals by an investigator ignorant of the treatments used on each of the animals. A 50 g limit was imposed in order to prevent tissue damage. A stock solution of cholest-4-en-3-one oxime in corn oil was prepared on the first day of the experiment and administered once daily by oral tube feeding (5 ml/kg). The cholest-4-en-3-one oxime was reduced to a fine powder and mixed with the necessary quantity of excipient in order to obtain concentrations of […], 6 and 20 mg/ml, the mixture is then homogenized by magnetic stirring for at least 10 minutes. Stock solutions were kept at 4° C. between administrations. A statistical analysis was carried out using a two-way ANOVA test followed by Tukey's test in order to compare the effect of the test compound with respect to the excipient.

[2] = tested on: neuropathies induced by paclitaxel; experiment: Hypersensitivity to pain (mechanical allodynia 4 gVFH, mechanical hyperalgesia 15 gVFH) in rat model of neuropathies induced by paclitaxel; type: in vivo, rat (Sprague-Dawley); conditions: for anti-allodynia (4 gVFH) / anti-hyperalgesia (15 gVFH): AUC D16-D40
Protocol: Adult male Sprague-Dawley rats were used.
Paclitaxel (6 mg/ml in a 50:50 mixture of Cremophor and ethanol) was diluted just before use with a […] sodium chloride solution at a concentration of 2 mg/ml and injected by intraperitoneal route in a volume of 1 ml/kg on days 0, 2, 4 and 6.
Fresh solutions of cholest-4-en-3 one oxime (Sigma) in corn oil were prepared each week at a concentration of 0.6 or 6.0 mg/ml. This solution was given to the animal by oral tube feeding in a volume of 5 ml/kg.
Three groups of 12 animals treated with paclitaxel were formed: • group 1: cholest-4-en-3-one oxime at 3 mg/kg per os, daily for 17 days (day(−1)-day(15), commencing on the day before the first injection of paclitaxel and continuing for 9 days after the last injection of paclitaxel). On the days when the cholest-4-en-3-one oxime and the paclitaxel had to be administered, the cholest-4-en-3-one oxime was given at 9:00 h, and the paclitaxel at 13:00 h; • group 2: as above except that the cholest-4-en-3-one oxime was given at 30 mg/kg; • group 3: as above except that the animals received an identical volume of excipient (corn oil);
The animals were habituated to the test environment for 3 separate days and then 3 sessions per day were organized in order to establish the normal response to a von Frey hairs (VFH) stimulation exerting pressure of 4 g or 15 g (4 gVFH or 15 gVFH). Normal rats rarely withdraw from a stimulation with 4 gVFH; thus, an increase in response post treatment with paclitaxel is a sign of mechanical allodynia. Normal rats withdraw from a stimulation with 15 gVFH 10-20% of the time; thus an increased frequency of response to this stimulus indicates mechanical hyperalgesia.
The animals were placed in cages containing a metal mesh floor giving access to the soles of the animals' paws. Each mechanical stimulus was applied to the middle of the heel of the left hind paw. The presence or absence of withdrawal of the paw was noted. This was repeated 5 times on each hind paw and the animals' responses were summarized as a percentage of responses (5 withdrawals of the paw in response to a stimulation of 15 gVFH corresponded to a score of 50%).
The rats were habituated to the test environment for 3 days. Tests relating to the reference level of sensitivity at 4 g and 15 gVFH were carried out for 3 consecutive days; the average of the last two corresponded to the level of sensitivity before treatment with paclitaxel. The behaviour tests for testing the effects of paclitaxel commenced on day 16 and were repeated on days 19, 22, 25, 28, 31, 35 and 40, by an investigator ignorant of the treatments applied to each of the animals.
The area-under-the-curve values were calculated for each group during the period from D16 to D40 (from the start of the appearance of the pain due to the paclitaxel to the end of the experiment). The AUC values were analyzed with an ANOVA test followed by comparison “in pairs” with the group having received the excipient by Dunnett's t-test.

[3] = tested on: cold allodynia induced by oxaliplatin; experiment: Cold allodynia (acetone drop) induced by cumulative doses of oxaliplatin in the rat; type: in vivo, rat (Sprague-Dawley)
Protocol: The effect of the cholest-4-en-3-one oxime on cold allodynia induced by cumulative doses of oxaliplatin were evaluated in the rat. Adult male Sprague-Dawley rats weighing approximately 150 g were used. The oxaliplatin was injected by intra-peritoneal route at 3 mg/kg three times a week and for three weeks (total cumulative dose of 27 mg/kg). The paw withdrawal time as well as the amplitude of the animal's response to harmless thermal stimulations using a drop of acetone were measured in the rats before and after treatment by oxaliplatin on days 1 and 18 respectively, and then on each day of treatment with cholest-4-en-3-one oxime, from day 22 to day 25. The cholest-4-en-3-one oxime (1, 10 and 100 mg/kg once daily) was administered by oral route from day 22 to day 25 and the thresholds for withdrawal of the paw were measured 4 hours after administration of the cholest-4-en-3-one oxime. 7 to 9 rats were used per dose tested. For each animal, the reaction times at which the animals withdrew their hind paw following the deposition of the drop of acetone were calculated as the average of six consecutive tests carried out at 5-minute intervals by an investigator ignorant of the treatments applied to each of the animals. A limit of 20 seconds was imposed. The amplitude of the response to the drop of acetone was marked on a scale of 0 to 3: 0 (no response); 1 (rapid withdrawal of the paw); 2 (prolonged withdrawal of the paw); 3 (repeated withdrawal of the paw with licking and/or biting). The score of each of the six tests was totalled. A stock solution of cholest-4-en-3-one oxime in corn oil was prepared on the first day of the experimentation and administered once daily by oral tube feeding (5 ml/kg). The cholest-4-en-3-one oxime was reduced to a fine powder and mixed with the necessary quantity of vehicle in order to obtain concentrations of 0.2, 2 and 20 mg/ml, the mixture is then homogenized by magnetic stirring for at least 10 minutes. Stock solutions were kept at 4° C. between administrations. A statistical analysis was carried out using a two-way ANOVA test followed by Bonferroni's test in order to compare the effect of the test compound with respect to the vehicle.

[4] = 3 mg/kg per os daily for 17 days
[5] = 30 mg/kg per os daily for 17 days

CC(C)CCC[C@@H](C)[C@H]1CC[C@H]2[C@@H]3CCC4=CC(=NO)CC[C@]4(C)[C@H]3CC[C@]12C [cholest-4-en-3-one oxime]
anti-allodynic effect on first day of administration ([1]; oral 10 mg/kg, p=0.086): no significant anti-allodynic effect
anti-allodynic effect on first day of administration ([1]; oral 30 mg/kg, P=0.232): no significant anti-allodynic effect
effect on allodynia induced by vincristine, daily treatment ([1]; oral 10, 30 and 100 mg/kg once daily, days 11 to 14, P<0.05 in all cases): significantly alleviates the allodynia
effect on allodynia induced by vincristine vs excipient ([1]; single oral dose 100 mg/kg, day 10, measured 4 hours after administration, P<0.001): significantly alleviates the allodynia
development of mechanical allodynia and hyperalgesia ([2]; 3 mg/kg and 30 mg/kg per os daily day -1 to day 15, AUC D16 to D40, p<0.01): significantly inhibited
anti-allodynia (4 gVFH) [2, 4]: 59%
anti-hyperalgesia (15 gVFH) [2, 4]: 45%
anti-allodynia (4 gVFH) [2, 5]: 53%
anti-hyperalgesia (15 gVFH) [2, 5]: 40%
anti-allodynic effect on first day of administration ([3]; lower doses (1 and 10 mg/kg oral), day 22): no significant anti-allodynic effect
anti-allodynic effect after daily treatment ([3]; oral 100 mg/kg once daily, days 22 to 25): persisted
effect on cold allodynia induced by oxaliplatin from third day of administration ([3]; oral 1 and 10 mg/kg once daily, day 24, P<0.05): significantly reduced the cold allodynia
effect on allodynia induced by oxaliplatin vs excipient ([3]; single oral dose 100 mg/kg, day 22, P<0.05): significantly reduced the allodynia
